The target of the assay is T1, human PAH with the R408W mutation (Homo sapiens, UniProt P00439, R408W).
T1 construct: expressed in transfected cells
T1 sequence (P00439 1-452 R408W): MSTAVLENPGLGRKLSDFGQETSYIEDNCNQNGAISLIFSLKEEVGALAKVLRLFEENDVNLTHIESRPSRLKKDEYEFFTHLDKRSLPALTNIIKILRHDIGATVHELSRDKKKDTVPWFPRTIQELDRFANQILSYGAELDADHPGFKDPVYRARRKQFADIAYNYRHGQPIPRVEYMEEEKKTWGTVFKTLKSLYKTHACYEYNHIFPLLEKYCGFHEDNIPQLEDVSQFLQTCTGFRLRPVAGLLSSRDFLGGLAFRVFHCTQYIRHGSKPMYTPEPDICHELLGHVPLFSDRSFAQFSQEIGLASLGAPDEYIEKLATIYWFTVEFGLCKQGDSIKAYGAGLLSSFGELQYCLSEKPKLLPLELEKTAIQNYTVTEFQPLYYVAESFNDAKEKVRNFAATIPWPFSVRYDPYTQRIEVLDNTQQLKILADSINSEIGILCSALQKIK
As to the kind of experiment: Cell Based Phenylalanine Flux Assay.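 Note: after compound treatment, cells received sepiapterin plus isotope-labelled Phenylalanine for 4 hours, then labelled Tyrosine in the medium was quantified, 10-point 2-fold dilution series run in duplicate.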 The following applies: A375 cells expressing R408W PAH; 24 hrs with compound, then 20 µM sepiapterin and 800 µM 13C9,15N-Phenylalanine for 4 hours; 13C-Tyrosine by LC-MS; average where tested multiple times; read-out: AC50.
Take `Cc1ccn2nc(C3c4nc[nH]c4CCN3C(=O)c3nnc(-c4ccn(C)n4)o3)cc2c1` (stereo not drawn) [listing 1 of 2 here]: the AC50 (as a rule, the concentration giving half of the maximal activity seen) was greater than 5 µM.
As for `Cc1ccn2nc(C3c4nc[nH]c4CCN3C(=O)c3nnc(-c4cnn(C)c4)o3)cc2c1` (stereo not drawn) [listing 1 of 2 here], the figure is greater than 5 µM.
As for `Cc1cccn2nc(C3c4nc[nH]c4CCN3C(=O)c3nnc(-c4cncn4C)o3)cc12` (stereo not drawn), the figure is 1 to 5 µM; as for `Cc1ccn2nc(C3c4nc[nH]c4CCN3C(=O)c3nnc(-c4ccn(C)n4)o3)cc2c1` (stereo not drawn) [listing 2 of 2 here], 1 to 5 µM.
As for `Cc1ccn2nc(C3c4nc[nH]c4CCN3C(=O)c3nnc(-c4cnn(C)c4)o3)cc2c1` (stereo not drawn) [listing 2 of 2 here], the figure is 1 to 5 µM; as for `Cn1cncc1-c1nnc(C(=O)N2CCc3[nH]cnc3C2c2cc3c(F)cccn3n2)o1` (stereo not drawn), 1 to 5 µM.
For `Cc1cccn2nc(C3c4nc[nH]c4CCN3C(=O)c3oc(-c4ccccn4)nc3C(F)F)cc12` (stereo not drawn), the AC50 lay in the range of 1 to 5 µM.
The figure for `CC(C)(O)c1nnc(C(=O)N2CCc3[nH]cnc3C2c2cc3c(F)cccn3n2)o1` (stereo not drawn) is 1 to 5 µM.
As for `Cc1cccn2nc(C3c4nc[nH]c4CCN3C(=O)c3nnc(C(C)(C)O)o3)cc12` (stereo not drawn), the figure is 1 to 5 µM; as for `CC(C)(O)c1ncc(C(=O)N2CCc3[nH]cnc3C2c2cc3ccccn3n2)o1` (stereo not drawn), 1 to 5 µM; as for `O=C(c1nnc(N2CCOCC2)o1)N1CCc2[nH]cnc2C1c1cc2c(F)cccn2n1` (stereo not drawn), 1 to 5 µM.
For `Cc1cccn2nc(C3c4nc[nH]c4CCN3C(=O)c3nnc(N4CCOCC4)o3)cc12` (stereo not drawn), the AC50 lay in the range of 1 to 5 µM.
`Cn1cc(-c2nc(C(F)F)c(C(=O)N3CCc4[nH]cnc4C3c3cc4ccccn4n3)o2)cn1` (stereo not drawn): the AC50 lay in the range of 1 to 5 µM.
As for `Cn1ccc(-c2nc(C(F)F)c(C(=O)N3CCc4[nH]cnc4C3c3cc4ccccn4n3)o2)n1` (stereo not drawn), the figure is greater than 5 µM; as for `Cc1cccn2nc(C3c4nc[nH]c4CCN3C(=O)c3oc(-c4ccn(C)n4)nc3C(F)F)cc12` (stereo not drawn), 1 to 5 µM; as for `Cn1ccc(-c2nc(C(F)F)c(C(=O)N3CCc4[nH]cnc4C3c3cc4c(F)cccn4n3)o2)n1` (stereo not drawn), greater than 5 µM.
For `Cc1nc(C(=O)N2CCc3[nH]cnc3C2c2cc3c(F)cccn3n2)n(C)n1` (stereo not drawn), the AC50 lay within 1 to 5 µM.
As for `Cc1cccc2cc([C@H]3c4nc[nH]c4CCN3C(=O)c3ncnn3C)nn12` (single isomer, unassigned), the figure is greater than 5 µM.
As for `Cn1cc(-c2ccc3c(C(=O)N4CCc5[nH]cnc5[C@@H]4c4cc5ccccn5n4)cnn3c2)cn1` (single isomer, unassigned), the figure is 1 to 5 µM.
The figure for `O=C(c1nnc(C2CC(F)(F)C2)o1)N1CCc2[nH]cnc2[C@@H]1c1cc2cccc(C(F)F)n2n1` (single isomer, unassigned) is greater than 5 µM; for `Cn1cc(-c2nnc(C(=O)N3CCc4[nH]cnc4[C@@H]3c3cc4cc(F)ccn4n3)o2)cn1` (single isomer, unassigned) it is 1 to 5 µM.
As for `Cc1nc(C(C)(C)O)oc1C(=O)N1CCc2[nH]cnc2[C@@H]1c1cc2cccc(C(F)(F)F)n2n1` (single isomer, unassigned), the half-maximal activity concentration (AC50) lay within 1 to 5 µM.
In the case of `CC(C)c1nnc(C(=O)N2CCc3[nH]cnc3[C@@H]2c2cc3cccc(C(F)(F)F)n3n2)o1` (single isomer, unassigned), the AC50 is 1 to 5 µM.
Turning to `Cc1nnc(C(=O)N2CCc3[nH]cnc3[C@@H]2c2cc3cccc(C(F)(F)F)n3n2)o1` (single isomer, unassigned), the AC50 lay within 1 to 5 µM.
The figure for `COc1cccn2nc([C@H]3c4nc[nH]c4CCN3C(=O)c3cc(C(C)(C)C)nn3C)cc12` (single isomer, unassigned) is greater than 5 µM; for `Cc1cccc2cc([C@H]3c4nc[nH]c4CCN3C(=O)c3cnn4cc(C5CC5)ccc34)nn12` (single isomer, unassigned) it is greater than 5 µM; for `Cc1ccn2nc([C@@H]3c4nc[nH]c4CCN3C(=O)c3ccnn3C(F)F)cc2c1` (single isomer, unassigned) it is 1 to 5 µM.
As for `Cc1c([C@@H]2c3nc[nH]c3CCN2C(=O)c2nnc(-c3cnn(C)c3C)o2)nn2ccccc12` (single isomer, unassigned), the figure is 1 to 5 µM; as for `CC(C)(F)c1nnc(C(=O)N2CCc3[nH]cnc3[C@H]2c2cc3cc(C(F)(F)F)ccn3n2)o1` (single isomer, unassigned), 1 to 5 µM; as for `CC(C)(F)c1nnc(C(=O)N2CCc3[nH]cnc3C2c2cc3cc(F)ccn3n2)o1` (single isomer, unassigned), 1 to 5 µM.
The figure for `O=C(c1nnc(C2CC(F)(F)C2)o1)N1CCc2[nH]cnc2[C@H]1c1cc2cccc(F)n2n1` (single isomer, unassigned) is 1 to 5 µM.
Consider `Cn1cc(-c2nnc(N3CCc4[nH]cnc4[C@H]3c3cc4c(F)cccn4n3)o2)cn1` (single isomer, unassigned), for which the AC50 fell in the range of 1 to 5 µM.
As for `Cc1nnc(N2CCc3[nH]cnc3[C@H]2c2cc3c(F)cccn3n2)o1` (single isomer, unassigned), the figure is 1 to 5 µM; as for `Cc1nnc(C(=O)N2CCc3[nH]cnc3[C@H]2c2cc3ccc(F)cn3n2)o1` (single isomer, unassigned), 1 to 5 µM.
In the case of `Cc1nnc(C(=O)N2CCc3[nH]cnc3[C@H]2c2cc3cccc(C(F)F)n3n2)o1` (single isomer, unassigned), the AC50 fell in the range of 1 to 5 µM.
As for `Cn1cnc(-c2nnc(C(=O)N3CCc4[nH]cnc4[C@H]3c3cc4cccc(C(F)F)n4n3)o2)c1` (single isomer, unassigned), the figure is 1 to 5 µM; as for `Cc1nnc(N2CCc3[nH]cnc3[C@H]2c2cc3cccc(Cl)n3n2)o1` (single isomer, unassigned), 1 to 5 µM; as for `O=C(c1oc(-c2ccccn2)nc1C1CC1)N1CCCc2[nH]cnc2[C@H]1c1cc2ccccn2n1` (single isomer, unassigned), 1 to 5 µM.
As for `COc1cccn2nc([C@@H]3c4nc[nH]c4CCN3C(=O)c3nnc(C(C)(C)O)o3)cc12` (single isomer, unassigned), the figure is greater than 5 µM; as for `CC(C)(O)c1ncc(C(=O)N2CCc3[nH]cnc3[C@H]2c2cc3cccc(Cl)n3n2)o1` (single isomer, unassigned), 1 to 5 µM; as for `Cc1cccc2cc([C@@H]3c4nc[nH]c4CCN3C(=O)c3cnc(C(C)(C)O)o3)nn12` (single isomer, unassigned), 1 to 5 µM.
In the case of `c1ccn2nc([C@H]3NCCc4ncn(-c5nnc(C6CC6)o5)c43)cc2c1` (single isomer, unassigned), the AC50 is 1 to 5 µM.
As to `c1ccn2nc([C@@H]3c4nc[nH]c4CCN3c3nnc(N4CCOCC4)o3)cc2c1` (single isomer, unassigned), the AC50 was greater than 5 µM.
For the molecule `COCc1ccc2c(C(=O)N3CCc4[nH]cnc4[C@H]3c3cc4cccc(F)n4n3)cnn2c1` (single isomer, unassigned), the AC50 was in the range of 1 to 5 µM.
As for `O=C(c1cnco1)N1CCc2[nH]cnc2[C@H]1c1cc2ccc(F)cn2n1` (single isomer, unassigned), the figure is 1 to 5 µM.
The figure for `CN(C)C(=O)c1nnc(N2CCc3[nH]cnc3[C@H]2c2cc3c(C(F)(F)F)cccn3n2)o1` (single isomer, unassigned) is 1 to 5 µM; for `Cc1nc([C@H](C)O)oc1C(=O)N1CCc2[nH]cnc2[C@H]1c1cc2cccc(C)n2n1` (single isomer, unassigned) it is 1 to 5 µM; for `COc1cccn2nc([C@@H]3c4nc[nH]c4CCN3C(=O)c3cnn4cc(CN(C)C)ccc34)cc12` (single isomer, unassigned) it is 1 to 5 µM.

For the origin of these results see patent US20230365592A1 (Agios Pharmaceuticals, Inc., priority 2022, published 2023).
